Measurements reported in patent US12509734B2, “Systems and methods to assess microbiomes and treatments thereof” (priority 2013, dated 2025).

Tested on: vaginal microbiota (PB-primer target groups)
Assay: PB-qPCR of acute BV and post-tinidazole vaginal lavages (Tables 3A, 3B)
Type: in vivo, human
Settings: for Post-Tinidazole PB-qPCR Cells/sample: post-tinidazole vaginal lavage
Method: DNA extraction. Bacteria were lysed from vaginal lavages by adding sodium hydroxide and sodium dodecyl sulfate to final concentrations of 133 mM and 10% respectively, followed by vigorous reciprocal shaking at room temperature for 30 m. This lysate was then extracted with phenol:chloroform:isoamyl alcohol (25:24:1) then chloroform. The DNA was precipitated with an equal volume of 100% isopropanol, washed once with 70% isopropanol, and dissolved in 100 μl TE (10 mM Tris pH 8, 1 mM EDTA). DNA was stored at −20° C. until further use. […] DNA was amplified from extracts of reference bacterial species as single colonies, using QUICKEXTRACT™ Plant DNA 144 Extraction Solution (Epicentre, Madison, WI), modified by heating at 65° C. for 30 m, 95° C. for 1 m.
PCR primers, blockers, and amplification. Standard PCR was performed on ROBOCYCLER™ Gradient 96 (Stratagene). Real-time PCR was performed using Cepheid SMARTCYCLER™ or LIGHTCYCLER® 480 II (Roche Applied Sciences) thermal cyclers. The reaction utilized individually optimized amounts of each primer, 250 μM dNTPs (Invitrogen), 20 mM Tris pH 8.3, 3 mM MgCl2, 50 mM KCl, and Taq DNA polymerase, 5 units from either GeneChoice or New England Biolabs, 2.5 units GenScript Green Taq, or 1 unit of glycerol-free Taq DNA polymerase from APEX (Genesee Scientific) per 100 μl reaction volume, including either 0.073×SYBR® Green I Nucleic Acid Stain (FMC Bio Products) or 0.25 μl of 15 μM SYTO9 (Invitrogen) for qPCR reactions.
Calculation of titers and percent compositions. Cp values from reactions in LIGHTCYCLER® 480 II Real-Time PCR System (Roche Applied Science) were converted to molecules by comparison to Cp values of a standard curve from the same run derived from four to eight 10-fold serial dilutions of an amplicon quantified using the QUANT-IT® assay (Invitrogen). Molecules per μl were converted to cells per 5 ml lavage, assuming an average of five ribosomal genes per cell and proportioned to the ratio of the volume of the lavage used in the DNA prep and its final volume.
If the titer of the sample was below the limit of detection for the PB assay, nested PCR on a 24-cycle amplicon from a longer broad-spectrum 16S amplicon was performed (Tables 3A-3D). If the nested PCR was negative, the titer of the original sample was assumed to be 0; if the nested PCR was positive, the titer was reported as below the concentration of most dilute but still positive sample in each specific run. Amplicons were sequenced to verify that targeted species were amplified. Mixed amplicons were cloned into pGEM-T™ easy (Promega) and approximately 10 of the resultant clones sequenced. Percentages were calculated by dividing the titer from each PB by the sum of the titers from all the PB primers.
For Tables 3A-3D, titers were determined by qPCR using standard curves and converted to approximate cells/sample as described herein. Primers BU4&BU6 were used alone for the 16S-C&S but the extended set (Table 1) was used for qPCR. Species were identified by Sanger sequencing of either uncloned amplicons, in cases where a single species was dominant for the target group, or by sequencing small numbers of E. coli clones derived from the amplicons if mixed. In silico performance was determined using the RDP website; Target hits is the number of database entries of “good” quality >1200 bp within the target grouping; Total hits is the total number of these hits in the RDP database; Specificity=target/total hits; Total target number=number of RDP entries in the target group; Target coverage=target hits/target number. Notes: uc=uncultured; n.d.=none detected; n.a.=not applicable; t=no subuniversal primer; *=detected by nested PCR only, reporting limit of detection; [ ]=identity; ˜=novel species, closest hit listed. […] 1 min and ended with 72° C. 5 min; ***=excludes ˜⅓ of Clostridium XI; **** performance not determined, showing forward primer only. […]

Structure (SMILES): CCS(=O)(=O)CCn1c([N+](=O)[O-])cnc1C [tinidazole]
- Composition of post-tinidazole sample (PB-qPCR, FIG. 5B): dominated by L. iners
- Fold higher G. vaginalis in the BV sample compared to post-tinidazole (one patient, vaginal lavages): approximately 10^4 fold
- Fold lower titer of L. iners in the acute BV sample compared to post-tinidazole (one patient, vaginal lavages): approximately 20 fold
- Post-Tinidazole PB-qPCR Cells/sample (target Actinobacteridae): 5.7E+04 Cells/sample
- Post-Tinidazole PB-qPCR Cells/sample (target Bacteroidaceae/uc Prevotellaceae): 4.7E+06 Cells/sample
- Post-Tinidazole PB-qPCR Cells/sample (target Beta-Proteobacteria): 2.6E+04 Cells/sample
- Post-Tinidazole PB-qPCR Cells/sample (target Broad-spectrum (BU4L/BU6R)): 1.4E+10 Cells/sample
- Post-Tinidazole PB-qPCR Cells/sample (target Clostridiales Incertae Sedis XI): 0 Cells/sample
- Post-Tinidazole PB-qPCR Cells/sample (target Clostridiales Incertae Sedis XII): 5.5E+03 Cells/sample
- Post-Tinidazole PB-qPCR Cells/sample (target Coriobacteridae): 4.0E+04 Cells/sample
- Post-Tinidazole PB-qPCR Cells/sample (target Cross-family Clostridia): 3.9E+03 Cells/sample
- Post-Tinidazole PB-qPCR Cells/sample (target Enterobacteriales, Pasteurellales, Pseudomonadaceae): 2.9E+03 Cells/sample
- Post-Tinidazole PB-qPCR Cells/sample (target Fusobacterium): 2.9E+02 Cells/sample
- Post-Tinidazole PB-qPCR Cells/sample (target Lachnospiracea uc & incertae sedis, Clostridium IVa, Roseburia): 2.8E+05 Cells/sample
- Post-Tinidazole PB-qPCR Cells/sample (target Lactobacillaceae): 8.4E+09 Cells/sample
- Post-Tinidazole PB-qPCR Cells/sample (target Megasphaera/Dialister/Veillonella): 1.8E+03 Cells/sample
- Post-Tinidazole PB-qPCR Cells/sample (target Mobiluncus): 0 Cells/sample
- Post-Tinidazole PB-qPCR Cells/sample (target Mycoplasmatales): 8.3E+04 Cells/sample
- Post-Tinidazole PB-qPCR Cells/sample (target Peptostreptococcaceae): 0 Cells/sample
- Post-Tinidazole PB-qPCR Cells/sample (target Staphylococcus): 1.0E+05 Cells/sample
- Post-Tinidazole PB-qPCR Cells/sample (target Streptococcus): 8.1E+05 Cells/sample
- Post-Tinidazole PB-qPCR Cells/sample (target uc Clostridiales (BVAB2&3 subset)): 0 Cells/sample
